PubChem BioAssay (NCI)
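Values below derive from 48-hour exposures of cells grown in 96-well plates, with endpoints linearly interpolated between the two concentrations bracketing the appropriate inhibition level. GI50 = concentration required for 50% inhibition of growth. TGI: concentration producing complete growth inhibition.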

Assays:
Experiment in all cases: inhibition of tumour cell growth, NCI panel, 48 h
SF-539 CNS = system: SF-539 CNS
OVCAR-5 ovarian = system: OVCAR-5 ovarian
MDA-MB-435 = system: MDA-MB-435
SR leukemia = system: SR leukemia
HCC-2998 colon = system: HCC-2998 colon
OVCAR-8 ovarian = system: OVCAR-8 ovarian
SNB-75 CNS = system: SNB-75 CNS
UACC-62 melanoma = system: UACC-62 melanoma
SN12C renal = system: SN12C renal
MOLT-4 leukemia = system: MOLT-4 leukemia
786-0 renal = system: 786-0 renal
RPMI-8226 leukemia = system: RPMI-8226 leukemia
A549 NSCLC = system: A549 NSCLC
BT-549 breast = system: BT-549 breast
NCI/ADR-RES ovarian = system: NCI/ADR-RES ovarian
HOP-92 NSCLC = system: HOP-92 NSCLC
M14 melanoma = system: M14 melanoma
NCI-H226 lung = system: NCI-H226 lung
CAKI-1 renal = system: CAKI-1 renal
UO-31 renal = system: UO-31 renal
NCI-H460 lung = system: NCI-H460 lung
SK-MEL-28 melanoma = system: SK-MEL-28 melanoma
RXF 393 renal = system: RXF 393 renal
IGROV1 ovarian = system: IGROV1 ovarian
NCI-H23 lung = system: NCI-H23 lung
SF-268 CNS = system: SF-268 CNS
MALME-3M melanoma = system: MALME-3M melanoma
SW-620 colon = system: SW-620 colon
HS 578T breast = system: HS 578T breast
PC-3 prostate = system: PC-3 prostate
HCT-116 colon = system: HCT-116 colon
COLO 205 colon = system: COLO 205 colon
HCT-15 colon = system: HCT-15 colon
HT29 colon = system: HT29 colon
MCF7 breast = system: MCF7 breast
T-47D breast = system: T-47D breast
CCRF-CEM leukemia = system: CCRF-CEM leukemia
SK-MEL-2 melanoma = system: SK-MEL-2 melanoma
LOX IMVI melanoma = system: LOX IMVI melanoma
EKVX NSCLC = system: EKVX NSCLC
UACC-257 melanoma = system: UACC-257 melanoma
NCI-H522 lung = system: NCI-H522 lung
TK-10 renal = system: TK-10 renal
HL-60(TB) leukemia = system: HL-60(TB) leukemia
SK-MEL-5 melanoma = system: SK-MEL-5 melanoma
HOP-62 NSCLC = system: HOP-62 NSCLC
K-562 leukemia = system: K-562 leukemia
KM12 colon = system: KM12 colon
A498 renal = system: A498 renal
ACHN renal = system: ACHN renal
DU-145 prostate = system: DU-145 prostate
OVCAR-4 ovarian = system: OVCAR-4 ovarian
U251 CNS = system: U251 CNS
SNB-19 CNS = system: SNB-19 CNS
OVCAR-3 ovarian = system: OVCAR-3 ovarian
SK-OV-3 ovarian = system: SK-OV-3 ovarian
MDA-MB-231 breast = system: MDA-MB-231 breast
SF-295 CNS = system: SF-295 CNS

In the case of `COc1cccc(-c2c[nH]c3c(N/N=C/c4ccncc4)ncnc23)c1`, the GI50 (SF-539 CNS) is reported as 1.56 µM, the TGI (SF-539 CNS) is reported as 6.81 µM and the GI50 (OVCAR-5 ovarian) is reported as 4.93 µM. It also gave a TGI (OVCAR-5 ovarian) of 17.2 µM, a GI50 (MDA-MB-435) of 1.83 µM and a TGI (MDA-MB-435) of 6.9 µM. The GI50 (SR leukemia) was 0.872 µM, the TGI (SR leukemia) was over 24.1 µM and the GI50 (HCC-2998 colon) was 4.36 µM. The TGI (HCC-2998 colon) was 15.8 µM, the GI50 (OVCAR-8 ovarian) was 2.57 µM and the TGI (OVCAR-8 ovarian) was 11.8 µM. The GI50 (SNB-75 CNS) was 1.47 µM, the TGI (SNB-75 CNS) was 6.78 µM and the GI50 (UACC-62 melanoma) was 2.8 µM. The TGI (UACC-62 melanoma) was 6.31 µM, the GI50 (SN12C renal) was 1.65 µM and the TGI (SN12C renal) was over 19.3 µM. It also gave a GI50 (MOLT-4 leukemia) of 4.42 µM, a TGI (MOLT-4 leukemia) of 19.6 µM and a GI50 (786-0 renal) of 1.26 µM. For the same compound, the TGI (786-0 renal) was 18.6 µM, the GI50 (RPMI-8226 leukemia) was 5.62 µM and the TGI (RPMI-8226 leukemia) was 14.4 µM. The GI50 (A549 NSCLC) was 2.67 µM, the TGI (A549 NSCLC) was 10.1 µM and the GI50 (BT-549 breast) was 4.89 µM. For the same compound, the TGI (BT-549 breast) was 18.5 µM, the GI50 (NCI/ADR-RES ovarian) was 4.54 µM and the TGI (NCI/ADR-RES ovarian) was over 19.3 µM. The GI50 (HOP-92 NSCLC) was 4.96 µM, the TGI (HOP-92 NSCLC) was 19.2 µM and the GI50 (M14 melanoma) was 3.19 µM. It also gave a TGI (M14 melanoma) of 9.54 µM, a GI50 (NCI-H226 lung) of 1.75 µM and a TGI (NCI-H226 lung) of over 16 µM. It also gave a GI50 (CAKI-1 renal) of 1.84 µM, a TGI (CAKI-1 renal) of over 25 µM and a GI50 (UO-31 renal) of 1.75 µM. The TGI (UO-31 renal) was over 23.7 µM, the GI50 (NCI-H460 lung) was 1.4 µM and the TGI (NCI-H460 lung) was 5.89 µM. The GI50 (SK-MEL-28 melanoma) was 3.42 µM, the TGI (SK-MEL-28 melanoma) was over 16 µM and the GI50 (RXF 393 renal) was 0.501 µM. It also gave a TGI (RXF 393 renal) of 2.16 µM, a GI50 (IGROV1 ovarian) of 3.9 µM and a TGI (IGROV1 ovarian) of over 25 µM. The GI50 (NCI-H23 lung) was 2.98 µM, the TGI (NCI-H23 lung) was 11.8 µM and the GI50 (SF-268 CNS) was 3.44 µM. For the same compound, the TGI (SF-268 CNS) was 13.3 µM, the GI50 (MALME-3M melanoma) was 8.58 µM and the TGI (MALME-3M melanoma) was 20.9 µM. It also gave a GI50 (SW-620 colon) of 1.5 µM, a TGI (SW-620 colon) of 5.39 µM and a GI50 (HS 578T breast) of 0.816 µM. The TGI (HS 578T breast) was 9.97 µM, the GI50 (PC-3 prostate) was 4.53 µM and the TGI (PC-3 prostate) was over 25 µM. For the same compound, the GI50 (HCT-116 colon) was 1.24 µM, the TGI (HCT-116 colon) was 5.36 µM and the GI50 (COLO 205 colon) was 1.2 µM. For the same compound, the TGI (COLO 205 colon) was 4.39 µM, the GI50 (HCT-15 colon) was 1.46 µM and the TGI (HCT-15 colon) was over 25 µM. It also gave a GI50 (HT29 colon) of 1.58 µM, a TGI (HT29 colon) of 8.9 µM and a GI50 (MCF7 breast) of 1.93 µM. For the same compound, the TGI (MCF7 breast) was 5.91 µM, the GI50 (T-47D breast) was 3.07 µM and the TGI (T-47D breast) was over 15.5 µM. The GI50 (CCRF-CEM leukemia) was 1.93 µM, the TGI (CCRF-CEM leukemia) was over 25 µM and the GI50 (SK-MEL-2 melanoma) was 1.7 µM. For the same compound, the TGI (SK-MEL-2 melanoma) was 6.15 µM, the GI50 (LOX IMVI melanoma) was 1.27 µM and the TGI (LOX IMVI melanoma) was 6.73 µM. It also gave a GI50 (EKVX NSCLC) of 7.06 µM, a TGI (EKVX NSCLC) of 24.1 µM and a GI50 (UACC-257 melanoma) of 6.02 µM. The TGI (UACC-257 melanoma) was 17.5 µM, the GI50 (NCI-H522 lung) was 2.25 µM and the TGI (NCI-H522 lung) was 7.78 µM. For the same compound, the GI50 (TK-10 renal) was 4.15 µM, the TGI (TK-10 renal) was 20.6 µM and the GI50 (HL-60(TB) leukemia) was 1.7 µM. The TGI (HL-60(TB) leukemia) was 7.35 µM, the GI50 (SK-MEL-5 melanoma) was 0.809 µM and the TGI (SK-MEL-5 melanoma) was 3.91 µM. For the same compound, the GI50 (HOP-62 NSCLC) was 3.74 µM, the TGI (HOP-62 NSCLC) was over 15.3 µM and the GI50 (K-562 leukemia) was 1 µM. It also gave a TGI (K-562 leukemia) of over 25 µM, a GI50 (KM12 colon) of 1.41 µM and a TGI (KM12 colon) of 4.9 µM. It also gave a GI50 (A498 renal) of 1.96 µM, a TGI (A498 renal) of 7.7 µM and a GI50 (ACHN renal) of 1.37 µM. For the same compound, the TGI (ACHN renal) was over 22.9 µM, the GI50 (DU-145 prostate) was 2.23 µM and the TGI (DU-145 prostate) was over 15.2 µM. It also gave a GI50 (OVCAR-4 ovarian) of 2.65 µM, a TGI (OVCAR-4 ovarian) of 11.1 µM and a GI50 (U251 CNS) of 2.13 µM. The TGI (U251 CNS) was 7.94 µM, the GI50 (SNB-19 CNS) was 7.15 µM and the TGI (SNB-19 CNS) was over 25 µM. The GI50 (OVCAR-3 ovarian) was 1.12 µM, the TGI (OVCAR-3 ovarian) was 6.26 µM and the GI50 (SK-OV-3 ovarian) was 0.903 µM. For the same compound, the TGI (SK-OV-3 ovarian) was 3.91 µM, the GI50 (MDA-MB-231 breast) was 3.83 µM and the TGI (MDA-MB-231 breast) was over 22.9 µM. The GI50 (SF-295 CNS) was 3.5 µM and the TGI (SF-295 CNS) was over 25 µM.
